Results: the NIST ThermoML archive (doi:10.1016/j.tca.2011.06.020)
± gives the expanded uncertainty stated by the source.

What was measured:
[1] = xn = mol fraction of the nth substance listed; settings: 101 kPa, Liquid; for speed of sound: Sing-around technique in a fixed-path interferometer; for mass density: Vibrating tube method
[2] = 101 kPa, Liquid; for speed of sound: Sing-around technique in a fixed-path interferometer; for mass density: Vibrating tube method

For `C1CCOCC1` [tetrahydropyran] + CNC=O, the speed of sound ([1]; 298.15 K, x1 = 1) was 1269.9 ± 2.9 m/s, the mass density ([1]; 298.15 K, x1 = 1) was 879.136 ± 0.7 kg/m3 and the speed of sound ([1]; 303.15 K, x1 = 1) was 1246.8 ± 2.9 m/s. The mass density ([1]; 303.15 K, x1 = 1) was 873.992 ± 0.7 kg/m3, the speed of sound ([1]; 308.15 K, x1 = 1) was 1224.5 ± 2.9 m/s and the mass density ([1]; 308.15 K, x1 = 1) was 868.831 ± 0.69 kg/m3.

Compound `C1CCOCC1` [tetrahydropyran] has a speed of sound ([2]; 298.15 K) of 1269.9 ± 2.9 m/s, a mass density ([2]; 298.15 K) of 879.136 ± 0.7 kg/m3 and a speed of sound ([2]; 303.15 K) of 1246.8 ± 2.9 m/s. The mass density ([2]; 303.15 K) was 873.992 ± 0.7 kg/m3, the speed of sound ([2]; 308.15 K) was 1224.5 ± 2.9 m/s and the mass density ([2]; 308.15 K) was 868.831 ± 0.69 kg/m3.

For `CNC=O` [N-methylformamide], the speed of sound ([2]; 298.15 K) was 1432.9 ± 2.9 m/s, the mass density ([2]; 298.15 K) was 999.004 ± 0.84 kg/m3 and the speed of sound ([2]; 303.15 K) was 1417.7 ± 2.9 m/s. The mass density ([2]; 303.15 K) was 994.653 ± 0.83 kg/m3, the speed of sound ([2]; 308.15 K) was 1402.5 ± 2.9 m/s and the mass density ([2]; 308.15 K) was 990.302 ± 0.83 kg/m3.

`CNC=O` [N-methylformamide] + Cc1ccccc1N showed a speed of sound ([1]; 298.15 K, x2 = 0) of 1432.9 ± 2.9 m/s, a mass density ([1]; 298.15 K, x2 = 0) of 999.004 ± 0.84 kg/m3 and a speed of sound ([1]; 303.15 K, x2 = 0) of 1417.7 ± 2.9 m/s. For the same compound, the mass density ([1]; 303.15 K, x2 = 0) was 994.653 ± 0.83 kg/m3, the speed of sound ([1]; 308.15 K, x2 = 0) was 1402.5 ± 2.9 m/s and the mass density ([1]; 308.15 K, x2 = 0) was 990.302 ± 0.83 kg/m3.

With `Cc1ccccc1N` [2-methylaniline] the speed of sound ([2]; 298.15 K) was 1602.6 ± 2.4 m/s, the mass density ([2]; 298.15 K) was 994.351 ± 0.23 kg/m3 and the speed of sound ([2]; 303.15 K) was 1577.8 ± 2.6 m/s. For the same compound, the mass density ([2]; 303.15 K) was 990.224 ± 0.45 kg/m3, the speed of sound ([2]; 308.15 K) was 1558.4 ± 2.4 m/s and the mass density ([2]; 308.15 K) was 986.069 ± 0.23 kg/m3.

`C1CCOCC1` [tetrahydropyran] + Cc1ccccc1N showed a speed of sound ([1]; 298.15 K, x2 = 0) of 1269.9 ± 2.9 m/s, a mass density ([1]; 298.15 K, x2 = 0) of 879.136 ± 0.7 kg/m3 and a speed of sound ([1]; 303.15 K, x2 = 0) of 1246.8 ± 2.9 m/s. It also gave a mass density ([1]; 303.15 K, x2 = 0) of 873.992 ± 0.7 kg/m3, a speed of sound ([1]; 308.15 K, x2 = 0) of 1224.5 ± 2.9 m/s and a mass density ([1]; 308.15 K, x2 = 0) of 868.831 ± 0.69 kg/m3.
